Assay results published in PubChem BioAssay AID256 (DTP/NCI, 2004).
Where “and” joins values, the source holds several entries; their conditions need not be identical. Equal values may be shown once. Toxic doses and inconclusive results are not listed.

System: CD2F1 mice, L1210 leukemia ip, survival T/C
Experiment: NCI In Vivo Anticancer Drug Screen. Data for tumor model L1210 Leukemia (intraperitoneal) in CD2F1 (CDF1) mice
Conditions: higher = longer survival
Summary of the method: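 Compound-dosed mice with transplantable tumor versus matched vehicle controls; endpoint ratio T/C reported.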

Q: With CC(CN=Cc1ccccc1O)N=Cc1ccccc1O.[Cu] (centres undefined) as the compound, how does the T/C (endpoint: mean survival time, dose: 25.0 mg/kg/injection, schedule: Q04DX002 (ip), vehicle: saline with Tween-80) read?
A: The T/C was 96 % of control.

Q: What about the T/C (endpoint: mean survival time, dose: 50.0 mg/kg/injection, schedule: Q04DX002 (ip), vehicle: saline with Tween-80) of the same compound?
A: The T/C was 103 % of control.

Q: What about the T/C (endpoint: mean survival time, dose: 100.0 mg/kg/injection, schedule: Q04DX002 (ip), vehicle: saline with Tween-80) of the same compound?
A: Its T/C is 100 % of control.

Q: What about the T/C (endpoint: mean survival time, dose: 200.0 mg/kg/injection, schedule: Q04DX002 (ip), vehicle: saline with Tween-80) of the same compound?
A: Its T/C is 103 % of control.

Q: Which results are given for CN(C)CCC(=O)C(c1ccccc1)c1ccccc1?
A: T/C (endpoint: mean survival time, dose: 75.0 mg/kg/injection, schedule: Q01DX001 (ip), vehicle: saline): 97 % of control; T/C (endpoint: mean survival time, dose: 150.0 mg/kg/injection, schedule: Q01DX001 (ip), vehicle: saline): 101 % of control

Q: For CN(/N=C/c1ccccc1)C(=N)N, which T/C (endpoint: mean survival time, dose: 15.62 mg/kg/injection, schedule: Q04DX003 (ip), vehicle: saline) is on record?
A: The T/C was 101 % of control.

Q: What about the T/C (endpoint: mean survival time, dose: 31.25 mg/kg/injection, schedule: Q04DX003 (ip), vehicle: saline) of the same compound?
A: The T/C was 107 % of control.

Q: And the T/C (endpoint: mean survival time, dose: 62.5 mg/kg/injection, schedule: Q04DX003 (ip), vehicle: saline)?
A: The T/C was 103 % of control.

Q: CC(C)(C)C(=O)CC(=O)C(C)(C)C.CC(C)(C)C(=O)CC(=O)C(C)(C)C.[Cu] was tested. Which T/C (endpoint: mean survival time, dose: 9.5 mg/kg/injection, schedule: Q01DX009 (ip), vehicle: saline with Tween-80) did it give?
A: The T/C was 98 % of control.

Q: And the T/C (endpoint: mean survival time, dose: 9.5 mg/kg/injection, schedule: Q04DX003 (ip), vehicle: saline with Tween-80)?
A: Its T/C is 90 % of control.

Q: What about the T/C (endpoint: mean survival time, dose: 19.0 mg/kg/injection, schedule: Q01DX009 (ip), vehicle: saline with Tween-80) of the same compound?
A: Its T/C is 102 % of control.

Q: What about the T/C (endpoint: mean survival time, dose: 19.0 mg/kg/injection, schedule: Q04DX003 (ip), vehicle: saline with Tween-80) of the same compound?
A: The T/C was 90 % of control.

Q: And the T/C (endpoint: mean survival time, dose: 38.0 mg/kg/injection, schedule: Q04DX003 (ip), vehicle: saline with Tween-80)?
A: The T/C was 91 % of control.

Q: How did the T/C (endpoint: mean survival time, dose: 50.0 mg/kg/injection, schedule: Q01DX009 (ip), vehicle: saline with Tween-80) turn out when CCCCN1C(=O)C(=O)N(c2ccc(S(N)(=O)=O)cc2)C1=O was run?
A: The T/C was 100 % of control.

Q: What about the T/C (endpoint: mean survival time, dose: 100.0 mg/kg/injection, schedule: Q01DX009 (ip), vehicle: saline with Tween-80) of the same compound?
A: The T/C was 89 % of control.

Q: What does the source list for Cc1ccc(C(=O)Nc2ncn(C3CC(O)C(CO)O3)c(=O)n2)cc1 (centres undefined)?
A: T/C (endpoint: mean survival time, dose: 1.56 mg/kg/injection, schedule: Q01DX005 (ip), vehicle: saline with Tween-80): 116 % of control; T/C (endpoint: mean survival time, dose: 3.13 mg/kg/injection, schedule: Q01DX005 (ip), vehicle: saline with Tween-80): 154 % of control; T/C (endpoint: mean survival time, dose: 6.25 mg/kg/injection, schedule: Q01DX005 (ip), vehicle: saline with Tween-80): 276 % of control; T/C (endpoint: mean survival time, dose: 12.5 mg/kg/injection, schedule: Q01DX005 (ip), vehicle: saline with Tween-80): 244 % of control; T/C (endpoint: mean survival time, dose: 50.0 mg/kg/injection, schedule: Q01DX005 (ip), vehicle: saline with Tween-80): 92 % of control

Q: How did the T/C (endpoint: median survival time, dose: 50.0 mg/kg/injection, schedule: Q04DX002 (ip), vehicle: saline with Tween-80) turn out when CC1(C)C(=O)C(C)(C)C1=NNc1ccc([N+](=O)[O-])cc1[N+](=O)[O-] was run?
A: The T/C was 90 % of control.

Q: What about the T/C (endpoint: median survival time, dose: 100.0 mg/kg/injection, schedule: Q04DX002 (ip), vehicle: saline with Tween-80) of the same compound?
A: Its T/C is 100 % of control.

Q: And the T/C (endpoint: median survival time, dose: 200.0 mg/kg/injection, schedule: Q04DX002 (ip), vehicle: saline with Tween-80)?
A: Its T/C is 90 % of control.

Q: What about the T/C (endpoint: median survival time, dose: 400.0 mg/kg/injection, schedule: Q04DX002 (ip), vehicle: saline with Tween-80) of the same compound?
A: The T/C was 100 % of control.

Q: With O=C([O][Hg][C](F)(F)F)C(F)(F)F as the compound, how does the T/C (endpoint: mean survival time, dose: 6.25 mg/kg/injection, schedule: Q04DX003 (ip), vehicle: saline) read?
A: The T/C was 98 % of control.

Q: What does the source list for CN(C)C=NC1(c2ccccc2)CCCCC1?
A: T/C (endpoint: mean survival time, dose: 25.0 mg/kg/injection, schedule: Q04DX003 (ip), vehicle: saline with Tween-80): 97 % of control; T/C (endpoint: mean survival time, dose: 50.0 mg/kg/injection, schedule: Q04DX003 (ip), vehicle: saline with Tween-80): 92 % of control; T/C (endpoint: mean survival time, dose: 100.0 mg/kg/injection, schedule: Q04DX003 (ip), vehicle: saline with Tween-80): 91 % of control and 97 % of control

Q: With BrCc1c2ccccc2c(CBr)c2c1ccc1ccccc12 as the compound, how does the T/C (endpoint: mean survival time, dose: 25.0 mg/kg/injection, schedule: Q04DX002 (ip), vehicle: carboxymethylcellulose (CMC)) read?
A: The T/C was 105 % of control.

Q: And the T/C (endpoint: mean survival time, dose: 50.0 mg/kg/injection, schedule: Q04DX002 (ip), vehicle: carboxymethylcellulose (CMC))?
A: The T/C was 117 % of control.

Q: What about the T/C (endpoint: mean survival time, dose: 100.0 mg/kg/injection, schedule: Q04DX002 (ip), vehicle: Klucel (hydroxypropylcellulose) (HPC)) of the same compound?
A: The T/C was 97 % of control.

Q: What about the T/C (endpoint: mean survival time, dose: 100.0 mg/kg/injection, schedule: Q04DX002 (ip), vehicle: carboxymethylcellulose (CMC)) of the same compound?
A: Its T/C is 113 % of control.

Q: What about the T/C (endpoint: mean survival time, dose: 200.0 mg/kg/injection, schedule: Q04DX002 (ip), vehicle: Klucel (hydroxypropylcellulose) (HPC)) of the same compound?
A: Its T/C is 117 % of control.
